Measured values taken from publication PMC9181188 (International Journal of Molecular Sciences, 2022).
≈ marks a conversion by molar mass, not a printed value. Read-outs that look alike come from different tables or passages of the source.

Tests used:
[1] = system: SW480 cells; assay: MTT assay, SW480; format: cell-based, human; settings: for IC50: human primary colon cancer, 72 h, MTT, mean ± SD; for SI SW480: SI = IC50 for normal cell line (HaCaT)/IC50 cancer cell line
[2] = system: SW620 cells; assay: MTT assay, SW620; format: cell-based, human; settings: for IC50: human metastatic colon cancer, 72 h, MTT, mean ± SD; for SI SW620: SI = IC50 for normal cell line (HaCaT)/IC50 cancer cell line
[3] = target: T1, S. aureus topoisomerase IV (Staphylococcus aureus, UniProt P0C1S7+P0C1U9); assay: S. aureus topoisomerase IV decatenation assay; format: biochemical
T1 construct: purchased Inspiralis
Method: The assay was performed using S. aureus topoisomerase IV […] kit (Inspiralis). Kinetoplast DNA (kDNA) was the substrate for topoisomerase IV.

[4] = target: S. aureus DNA gyrase (Staphylococcus aureus, UniProt P0A0K8+P20831); assay: biochemical
[5] = system: PC3 cells; assay: MTT assay, PC3; format: cell-based, human; settings: for IC50: Homo sapiens, PC-3, 72 h, human metastatic prostate cancer, 72 h, MTT, mean ± SD; for SI PC3: SI = IC50 for normal cell line (HaCaT)/IC50 cancer cell line
[6] = system: HaCaT cells; assay: MTT assay, HaCaT normal cells; format: cell-based; settings: human immortal keratinocyte cell line, 72 h, mean ± SD
[7] = system: S. aureus NCTC 4163; assay: MIC, twofold microdilution, standard strain; format: cell-based; settings: Staphylococcus aureus, NCTC4163; 18 h of treatment; read-out: MIC S. aureus NCTC 4163
[8] = system: S. aureus ATCC 25923; assay: MIC, twofold microdilution, standard strain; format: cell-based; settings: Staphylococcus aureus, ATCC25923; 18 h of treatment; read-out: MIC S. aureus ATCC 25923
[9] = system: S. aureus ATCC 6538; assay: MIC, twofold microdilution, standard strain; format: cell-based; settings: Staphylococcus aureus, ATCC6538; 18 h of treatment; read-out: MIC S. aureus ATCC 6538
[10] = system: S. aureus ATCC 29213; assay: MIC, twofold microdilution, standard strain; format: cell-based; settings: Staphylococcus aureus, ATCC29213; 18 h of treatment; read-out: MIC S. aureus ATCC 29213
[11] = system: S. epidermidis ATCC 12228; assay: MIC, twofold microdilution, standard strain; format: cell-based; settings: Staphylococcus epidermidis, ATCC12228; 18 h of treatment; read-out: MIC S. epidermidis ATCC 12228
[12] = system: S. epidermidis ATCC 35984; assay: MIC, twofold microdilution, standard strain; format: cell-based; settings: Staphylococcus epidermidis, ATCC35984; 18 h of treatment; read-out: MIC S. epidermidis ATCC 35984
[13] = system: E. coli ATCC 25922; assay: MIC, twofold microdilution, standard strain; format: cell-based, Escherichia coli; settings: Escherichia coli, ATCC25922; 18 h of treatment; read-out: MIC E. coli ATCC 25922
[14] = system: P. aeruginosa ATCC 27853; assay: MIC, twofold microdilution, standard strain; format: cell-based; settings: Pseudomonas aeruginosa, read-out: MIC P. aeruginosa ATCC 27853
[15] = system: S. epidermidis KR 4047 825/19; assay: MIC, clinical S. epidermidis strain; format: cell-based; settings: Staphylococcus epidermidis, KR4047825/19, quinolone-resistant, 18 h of treatment
[16] = system: S. epidermidis KR 4243 829/19; assay: MIC, clinical S. epidermidis strain; format: cell-based; settings: Staphylococcus epidermidis, KR4243829/19, quinolone-susceptible, 18 h of treatment
[17] = system: S. epidermidis KR 4313 834/19; assay: MIC, clinical S. epidermidis strain; format: cell-based; settings: Staphylococcus epidermidis, KR4313834/19, quinolone-susceptible, 18 h of treatment
[18] = system: S. epidermidis KR 4358/2 840/19; assay: MIC, clinical S. epidermidis strain; format: cell-based; settings: Staphylococcus epidermidis, KR4358/2840/19; clinical S. epidermidis, quinolone-susceptible, 18 h of treatment; read-out: MIC KR 4358/2 840/19
[19] = system: S. epidermidis T 5253 845/19; assay: MIC, clinical S. epidermidis strain; format: cell-based; settings: Staphylococcus epidermidis, T5253845/19, quinolone-resistant, 18 h of treatment
[20] = system: S. epidermidis T 5399 848/19; assay: MIC, clinical S. epidermidis strain; format: cell-based; settings: Staphylococcus epidermidis, T5399848/19, quinolone-susceptible, 18 h of treatment
[21] = system: S. epidermidis T 5501 851/19; assay: MIC, clinical S. epidermidis strain; format: cell-based; settings: Staphylococcus epidermidis, T5501851/19, read-out: MIC T 5501 851/19, quinolone-susceptible, 18 h of treatment
[22] = system: M. tuberculosis H37Rv; assay: MABA (microplate Alamar blue assay) MIC; format: cell-based; settings: Mycobacterium tuberculosis, 336 h, read-out: MIC M. tuberculosis H37Rv
[23] = system: M. tuberculosis Spec. 192 (Sensitive to Tuberculostatics); assay: MABA (microplate Alamar blue assay) MIC; format: cell-based; settings: Mycobacterium tuberculosis, 336 h, read-out: MIC M. tuberculosis Spec. 192 (Sensitive to Tuberculostatics)
[24] = system: standard staphylococci (S. aureus, S. epidermidis); assay: MIC, standard Gram-positive strains as a group; format: cell-based; settings: Staphylococcus aureus; range over standard Gram-positive strains; read-out: MIC against standard staphylococci

## N.N.[Cl][Pt][Cl] [Cisplatin, reference compound]
[1]
  IC50: 10.4 ± 0.9 µM
[2]
  IC50: 6.7 ± 1.1 µM

## CC=CC(=O)N1CCN(c2cc3c(cc2F)c(=O)c(C(=O)O)cn3C2CC2)CC1 [Compound 1]
[3]
  IC50: > 160 µM
[4]
  IC50: > 160 µM

## CC=CC=CC(=O)N1CCN(c2cc3c(cc2F)c(=O)c(C(=O)O)cn3C2CC2)CC1 [Compound 2]
[3]
  IC50: 75.2 µM
[4]
  IC50: 79.9 µM

## CC(C)=CCCC(C)=CC(=O)N1CCN(c2cc3c(cc2F)c(=O)c(C(=O)O)cn3C2CC2)CC1 [Compound 3]
[3]
  IC50: > 133 µM
[4]
  IC50: 107 µM

## CCCCCCCC/C=C\CCCCCCCCCCCC(=O)N1CCCC2CN(c3c(F)cc4c(=O)c(C(=O)O)cn(C5CC5)c4c3OC)CC21 (centres unmarked) [Compound 7m, 1-Cyclopropyl-7-{1-(Z)-docos-13-enoyl-octahydro-pyrrolo[3,4-b]pyridin-6-yl}-6-fluoro-8-methoxy-4-oxo-1,4-dihydro-quinoline-3-carboxylic acid]
[1]; Homo sapiens, SW480, 72 h
  IC50: 48.6 ± 2.6 µM
[1]
  SI SW480: 1.8
[2]; Homo sapiens, SW-620, 72 h
  IC50: 51.8 ± 4.3 µM
[2]
  SI SW620: 1.6
[5]
  IC50: 36.5 ± 2.3 µM
  SI PC3: 2.3
[6]
  IC50: 85.2 ± 3.3 µM
[7]
  MIC: 256 µg/mL (≈ 355 µM)
[8]
  MIC: 512 µg/mL (≈ 709 µM)
[9]
  MIC: 128 µg/mL (≈ 177 µM)
[10]
  MIC: 512 µg/mL (≈ 709 µM)
[11]
  MIC: 512 µg/mL (≈ 709 µM)
[12]
  MIC: 256 µg/mL (≈ 355 µM)
[13]
  MIC: 256 µg/mL (≈ 355 µM)
[14]; ATCC27853, 18 h
  MIC: > 512 µg/mL
[15]
  MIC: 512 µg/mL (≈ 709 µM)
[16]
  MIC: 256 µg/mL (≈ 355 µM)
[17]
  MIC: 256 µg/mL (≈ 355 µM)
[18]
  MIC: 256 µg/mL (≈ 355 µM)
[19]
  MIC: > 512 µg/mL
[20]
  MIC: 512 µg/mL (≈ 709 µM)
[21]
  MIC: 256 µg/mL (≈ 355 µM)
[22]
  MIC: > 512 µg/mL
[23]
  MIC: > 512 µg/mL
[24]
  MIC: > 32 µg/mL

## CCCCCCCCCCCCCCCCCC(=O)N1CCCC2CN(c3c(F)cc4c(=O)c(C(=O)O)cn(C5CC5)c4c3OC)CC21 (centres unmarked) [Compound 16m, 1-Cyclopropyl-6-fluoro-8-methoxy-7-(1-octadecanoyl-octahydro-pyrrolo[3,4-b]pyridin-6-yl)-4-oxo-1,4-dihydro-quinoline-3-carboxylic acid]
[1]; Homo sapiens, SW480, 72 h
  IC50: < 5 µM
[1]
  SI SW480: 30.2
  IC50: 2.7 ± 0.7 µM
[2]; Homo sapiens, SW-620, 72 h
  IC50: 6.5 ± 1.2 µM
[2]
  SI SW620: 12.5
[5]
  SI PC3: 34.0
[6]
  IC50: 81.5 ± 4.2 µM
[7]
  MIC: 64 µg/mL (≈ 95.8 µM)
[8]
  MIC: 64 µg/mL (≈ 95.8 µM)
[9]
  MIC: 64 µg/mL (≈ 95.8 µM)
[10]
  MIC: 64 µg/mL (≈ 95.8 µM)
[11]
  MIC: 64 µg/mL (≈ 95.8 µM)
[12]
  MIC: 64 µg/mL (≈ 95.8 µM)
[13]
  MIC: 128 µg/mL (≈ 192 µM)
[14]; ATCC27853, 18 h
  MIC: > 512 µg/mL
[15]
  MIC: 256 µg/mL (≈ 383 µM)
[16]
  MIC: 64 µg/mL (≈ 95.8 µM)
[17]
  MIC: 128 µg/mL (≈ 192 µM)
[18]
  MIC: 512 µg/mL (≈ 767 µM)
[19]
  MIC: 512 µg/mL (≈ 767 µM)
[20]
  MIC: 512 µg/mL (≈ 767 µM)
[21]
  MIC: 512 µg/mL (≈ 767 µM)
[22]
  MIC: > 512 µg/mL
[23]
  MIC: > 512 µg/mL
[24]
  MIC: > 32 µg/mL

## COc1cccc2c1C(=O)c1c(O)c3c(c(O)c1C2=O)C[C@@](O)(C(=O)CO)C[C@@H]3O[C@H]1C[C@H](N)[C@H](O)[C@H](C)O1 [Doxorubicin, reference compound]
[1]; Homo sapiens, SW480, 72 h
  IC50: 0.75 ± 0.1 µM
[6]
  IC50: 0.29 ± 0.1 µM

## CC[C@@H](CO)NCCN[C@@H](CC)CO [Ethambutol (EMB), Ethambutol, reference compound]
[22]; 2 weeks of treatment
  MIC: 2 µg/mL (≈ 9.79 µM)
[23]; 2 weeks of treatment
  MIC: 2 µg/mL (≈ 9.79 µM)

## NNC(=O)c1ccncc1 [Isoniazid (INH), Isoniazid, reference compound]
[22]
  MIC: 0.125 µg/mL (≈ 0.911 µM)
[23]; 2 weeks of treatment
  MIC: 0.125 µg/mL (≈ 0.911 µM)

## COc1c(N2C[C@@H]3CCCN[C@@H]3C2)c(F)cc2c(=O)c(C(=O)O)cn(C3CC3)c12 [MXF, moxifloxacin, reference compound]
[1]; Homo sapiens, SW480, 72 h
  IC50: 58.4 ± 3.1 µM
[2]; Homo sapiens, SW-620, 72 h
  IC50: 54.5 ± 3.8 µM
[5]
  IC50: 46.4 ± 3.2 µM
[6]
  IC50: 121 ± 6.8 µM
[7]
  MIC: 0.06 µg/mL (≈ 0.149 µM)
[8]
  MIC: < 0.03 µg/mL
[9]
  MIC: 0.06 µg/mL (≈ 0.149 µM)
[10]
  MIC: 0.06 µg/mL (≈ 0.149 µM)
[11]
  MIC: 0.06 µg/mL (≈ 0.149 µM)
[12]
  MIC: 0.06 µg/mL (≈ 0.149 µM)
[13]
  MIC: < 0.03 µg/mL
[14]; ATCC27853, 18 h of treatment
  MIC: > 512 µg/mL
[15]
  MIC: 2 µg/mL (≈ 4.98 µM)
[16]
  MIC: 0.1 µg/mL (≈ 0.249 µM)
[17]
  MIC: 0.1 µg/mL (≈ 0.249 µM)
[18]
  MIC: 0.1 µg/mL (≈ 0.249 µM)
[19]
  MIC: 4 µg/mL (≈ 9.96 µM)
[20]
  MIC: 0.1 µg/mL (≈ 0.249 µM)
[21]
  MIC: 0.1 µg/mL (≈ 0.249 µM)
[22]; 2 weeks of treatment
  MIC: 0.25 µg/mL (≈ 0.623 µM)
[23]; 2 weeks of treatment
  MIC: 0.125 µg/mL (≈ 0.311 µM)

## CO[C@H]1/C=C/O[C@@]2(C)Oc3c(C)c(O)c4c(O)c(c(/C=N/N5CCN(C)CC5)c(O)c4c3C2=O)NC(=O)/C(C)=C\C=C\[C@H](C)[C@H](O)[C@@H](C)[C@@H](O)[C@@H](C)[C@H](OC(C)=O)[C@@H]1C [Rifampicin (RMP), Rifampicin, reference compound]
[22]; 2 weeks of treatment
  MIC: 1 µg/mL (≈ 1.22 µM)
[23]; 2 weeks of treatment
  MIC: 1 µg/mL (≈ 1.22 µM)

## [H]/N=C(/N)N[C@H]1[C@H](O)[C@@H](O)[C@H](O[C@@H]2O[C@@H](C)[C@](O)(C=O)[C@H]2O[C@@H]2O[C@@H](CO)[C@H](O)[C@@H](O)[C@@H]2NC)[C@@H](N/C(N)=N\[H])[C@@H]1O [Streptomycin (SM), Streptomycin, reference compound]
[22]; 2 weeks of treatment
  MIC: 1 µg/mL (≈ 1.72 µM)
[23]; 2 weeks of treatment
  MIC: 1 µg/mL (≈ 1.72 µM)
